Data on 1 compound can be found in patent US12201626B2, “Bifunctional compositions for the treatment of cancer” (ARMACEUTICA, INC., priority 2018, dated 2025).

The subject of assay [1] is CEM cell line. Briefly: Differential Nuclear Staining (DNS) cytotoxicity assay. In kind it is cell-based, human. The text has this:
In this study, 19 human cell lines were utilized: seven breast human cancer; MDA-MB-468, MCF-7, T47D, HCC1419, HCC70, MDA-MB-231 (triple negative) and its lung metastatic (LM) derivative MDA-MB-231 LM2; four human leukemia/lymphoma cells, HL-60, Ramos, Jurkat and CEM, three human ovarian cancer, Ovcar 8, Ovcar 5 and Ovcar 3, one lung cancer, one melanoma and one pancreatic cell line, A549, A375, Panc-1 respectively. Furthermore, for selectivity/comparative purposes, the cell lines from the non-cancerous origin, MCF-10A, HS-27 were also included. […] The adherent cells, growing in the logarithmic growth phase at a 60-75% confluence, were detached by utilizing a HyQtase enzyme (Thermo Fisher Scientific Inc.), counted and seeded in 96-well plates at 10,000 cells density in 100 μL of culture medium per well. […]
To analyze the potential cytotoxic activity of PND, the Differential Nuclear Staining (DNS) assay, which was validated for high-throughput screening (HTS) using live-cell bio-imaging was utilized. […] Montages of 2 by 2 images were captured directly from each individual well of the culture plates by using a multi-well plate reader IN Cell 2000 analyzer, an HTS and high-content analysis (HCA) system (GE Healthcare Life Sciences, Pittsburgh, PA). […] Each experimental data point, as well as controls, were assessed in triplicates. […]

Assay [2] has as its system plasmid dsDNA (pCMV-dR8.91). Briefly: DNA mobility-shift assay (agarose gel). Set-up: DNA mobility shift: unit of the concentration uncertain. Type of assay: binding. Particulars: for DNA mobility shift: 100 ng plasmid DNA. Here is the method: Typically, an experimental compound intercalating or binding to double stranded (ds) DNA will increase the molecular mass resulting from forming complexes, decreasing its electrophoretic mobility in an agarose gel, as compared with untreated dsDNA. To explore the potential interaction between PND and dsDNA, a DNA mobility-shift assay was conducted. Each reaction mixture was of 10 μl total volume in PBS pH 7.4. Both PND (Sigma-Aldrich) and quinacrine (Sigma-Aldrich) were tested with three individual concentrations of 1 μM, 0.5 μM or 0.25 μM, respectively. To each reaction mixture, 100 ng of plasmid dsDNA (pCMV-dR8.91; Addgene, Cambridge, MA) was added and the mixture was then incubated for 30 min at 37° C. and stopped by adding 2 μl of 6× gel loading buffer and placed on ice. The potential binding interaction between both PND and quinacrine with dsDNA were analyzed by using 1% (w/v) agarose-gel electrophoresis dissolved in TAE buffer (0.04 M Tris base, 0.04 M acetate and 0.001 M EDTA) pH 8.0. To stain the dsDNA complexes, Ethidium bromide was added to the agarose gel throughout the electrophoresis process at a concentration of 0.5 μg/ml. DNA migration was visualized by utilizing a gel documentation system and pictures were captured by using a UV-light transilluminator (Alpha Innotech, San Leandro, CA). The well-known DNA intercalator fluorescent compound, propidium iodide (PI), was included as positive controls at 1 μg per reaction. As a control, untreated plasmid DNA was included to determine its normal electrophoretic mobility in the gel.

For the compound `COC1=CC=C2Nc3cc(Cl)ccc3C(N=C3C=C(CN4CCCC4)C(=O)C(CN4CCCC4)=C3)=C2N1` [PND, 4-[(7-chloro-2-methoxy-1,5-dihydrobenzo[b][1,5]naphthyridin-10-yl)imino]-2,6-bis(pyrrolidin-1-ylmethyl)cyclohexa-2,5-dien-1-one], in assay [1], the “selectivity (SCI)” value was “poor selectivity”. The DNA mobility shift entry in assay [2] (0.5 and 0.25 mM) is “clear reduction in mobility”; in assay [2] (1 (unit uncertain), 30 min 37° C.), “marked reduction of migration”. Further, in assay [2] (fragments smaller than free supercoiled DNA), the DNA degradation result is on record as “did not result in DNA degradation”.
